Results: US8492417B2, “Topical use of thiazolidine derivatives against consequences of oxidative stress of skin” (Exsymol S.A.M., priority 2007, dated 2013)
Where two headings read alike, the source gives them in different places.

What was measured:
[1] = test system: V79 cells; experiment: Protection against "UVA-induced" stress: intracellular ROS by CMDCF probe; assay type: cell-based, hamster; conditions: irradiated cells, UVA 5 J. cm−2
Description: The study has been carried out according to identical experimental conditions (sowing) to those presented in the here-above tests 3 and 4, but with an exposure of V79 cells to ultraviolet radiation (λ315-400 nm) with the moderate dose of 5 J. cm^−2 (“UVA-induced” stress).
The formation of intracellular ROS is measured with the permeant fluorescent probe “CMDCF” derived from fluorescein (10 μm, 15 minutes incubation).
The percentages of CMDCF cells said “positive” (cells with intracellular formation of ROS are presented below in table 6, in comparison with unirradiated cells, then with cells treated with N-acetyl-cysteine (reference molecule) and different concentrations of 2-oxo-1,3-thiazolidine compound.

[2] = test system: V79 fibroblastic line; experiment: Neutralization of 4-hydroxynonenal cytotoxicity, MTT cellular viability; assay type: cell-based, hamster; conditions: 4-HNE 6 ppm
Description: The experimental study has been carried out on a fibroblastic line of hamster called V79, maintained in humid atmosphere at 37° C. and 5% CO2, then seeded in 96 wells plates at the rate of 0.5.10^4 cells per well.
The cellular viability of fibroblasts is measured by the incorporation method to the bromide of 3-(4,5-dimethylthiazol-2-yl)-2,5-diphenyltetrazolium (or MTT). The results, taking the middle values obtained from three independent experiments, are presented below in table 3, in comparison with those for the N-acetyl-cysteine at 2 mM chosen as a positive reference molecule (total restoration of cellular viability in relation to a control and the non stressed cells with 4-HNE).

[3] = test system: V79 fibroblastic line; experiment: Anti-clastogen effect: micronucleus cells under genotoxic 4-HNE stress; assay type: cell-based, hamster; conditions: stress-HNE 1 ppm
From the text: The study has been carried out according to identical experimental conditions (sowing) to those presented in the here-above test 3, with cell exposure to a state of “4-HNE stress ” at […] genotoxic concentration, as described (Eckel P. M., Molecular Aspects of Medicine (2003), vol. 24, pp. 161-165) as generating cellular DNA breaks and micronucleus formation (clastogen effect).
The micronucleus cell number is counted following reading of the slides with epifluorescence microscope, on 2000 cells and after marking with orange acridine (DNA colorant).
Results, taking the middle values obtained from two independent experiments, are presented below in table 4, in comparison with those for N-acetyl-cysteine at 2 mM chosen as a positive reference molecule (number of micronucleus cells close to the non-exposed control).

[4] = "in tubo" taurine formation in contact with H2O2 solution (HPLC); assay type: physicochemical; conditions: 4 equivalents H2O2, pH 7.4, 37° C.
[5] = Scavenging speed constant of the hydroxyl radical, Ks (OH°); design: unit not given here; conditions: pH 7,4, 37° C., one hour incubation; middle values of five experiments
Description: The method, described by Rehman A. and coll.
Experimentally, the tested substance is dissolved in a buffered medium of pH 7,4 to which is added a generating medium of OH^o. Following one hour of incubation at 37° C., the reaction is stopped with the help of trichloroacetic acid. […]

[6] = "Global" antioxidant power: desoxyribose protection with oxidase/hypoxanthine xanthine pair; conditions: pH 7.5
Description: The production system of ROS, described by Nowak D. and coll. […] This is characterized by the sum of the effects against the superoxide anion O2^o−, hydrogen peroxide H2O2, and the hydroxyl radical OH^o, and is expressed by following the percentage of protection of a “detecting” molecule, desoxyribose.
Experimentally, the tested substance is dissolved in a buffered medium at pH 7.5, supplemented with NaCl, MgCl2 et CaCl2. After their incubation at 37° C. in the presence of the oxidase/hypoxanthine xanthine pair, EDTA and desoxyribose, the reaction is stopped with the help of trichloroacetic acid. After addition of thiobarbituric acid, an optic density measure at 532 nm is carried out, expressed later as percentage of desoxyribose protection (following comparison with a control).

[7] = physchem
[8] = literature value (Cabelli 1983); cited from earlier work

## CC(=O)N[C@@H](CS)C(=O)O [N-acetyl-cysteine, reference compound]
[1]; compound 5 mM
  % of CMDCF positive cells: 4%
[2]; compound 2 mM
  viability at 2000 µM: 126%
[3]; compound 2 mM
  Cell number with micronucleus/2000 cells: 27

## S=C1NCCS1 [2-thiono-1,3-thiazolidine]
[4]; 3 h
  taurine (% formation): 30%
[4]; 7 h
  taurine (% formation): 50%
[4]; 24 h
  taurine (% formation): 77%
[4]; 48 h
  taurine (% formation): 89%

## O=C1NCCS1 [2-oxo-1,3-thiazolidine]
[5]
  Ks (OH°): 13.52
[1]; compound 0.625 mM
  % of CMDCF positive cells: 24.7%
[1]; compound 1.25 mM
  % of CMDCF positive cells: 15.3%
[1]; compound 2.5 mM
  % of CMDCF positive cells: 12%
[1]; compound 5 mM
  % of CMDCF positive cells: 7.3%
[4]; 3 h
  taurine (% formation): 38%
[4]; 7 h
  taurine (% formation): 56%
[4]; 24 h
  taurine (% formation): 82%
[4]; 48 h
  taurine (% formation): 93%
[2]; compound 0.1 mM
  viability at 100 µM: 40%
[2]; compound 1 mM
  viability at 1000 µM: 58%
[2]; compound 2.5 mM
  viability at 2500 µM: 100%
[6]; compound 10 mM
  % protection: 19%
[6]; compound 20 mM
  % protection: 25%
[7]
  logP: -0.27
[3]; compound 5 mM
  Cell number with micronucleus/2000 cells: 21

## O=C1O[C@H]([C@@H](O)CO)C(O)=C1O [ascorbic acid]
[8]
  Ks (OH°): 10.1 Gigas.M-1.s-1
